Test system: SC-β cells
Test: FACS analysis of marker expression in cells differentiated to SC-β cells (end of Step 6, versus DMSO control)
Assay type: cell-based, human
Text: FIG. 4A is a schematic illustrating an exemplary method for generating SC-β cells according to an embodiment of the present invention, e.g., by contacting a cell population directed to differentiate to SC-β cells under conditions that promote cell clustering with an agent that decreases the level and/or activity of rho-associated protein kinase (Rock inhibitor), a TGF-β superfamily member (e.g., Activin A), and a protein kinase inhibitor (e.g., staurosporine) during the steps indicated.
The SC-β cells generated in accordance with the methods of the present invention can be used in various assays to identify novel drugs that improve β cell function, survival, or proliferation, cell therapies (e.g., for treating diabetes and/or metabolic disorders), and in the construction of artificial islets and/or an artificial pancreas.

[1] = S4 cells contacted during Step 5, cells at end of Step 6, versus control (DMSO)

## CN[C@@H]1C[C@H]2O[C@@](C)([C@@H]1OC)n1c3ccccc3c3c4c(c5c6ccccc6n2c5c31)C(=O)NC4 [staurosporine]
[1]
  endocrine population purity (FACS): near pure endocrine population
  percentage of NKX6.1+, C-Peptide+ cells (FACS): higher percentage of NKX6.1+, C-Peptide+ cells
S4 cells contacted during Step 5 together with the Rock inhibitor, in the absence of Activin A
  marker expression at differentiation stages S4, S5, S6 (FACS): maintain marker expression

From US12123023B2, “Methods for generating stem cell-derived β cells and methods of use thereof” (President and Fellows of Harvard College, priority 2014, dated 2024)
